Columns and labels:
ECC-1 cells = experiment: MTS cell viability assay, ECC-1; format: cell-based; settings: FIG. 3
Experimental: ECC-1 cells were seeded (10,000 cells/well) in complete RPMI (supplemented with 10% fetal bovine serum and 1% antibiotic) and allowed to adhere over night. Media was replaced with a fresh complete RPMI media containing varying concentrations of Compound (3). DMSO was used as control. At suitable intervals (varying from 1 minute to 4 days), the media was replaced again with complete RPMI (supplemented with 10% fetal bovine serum and 1% antibiotic) containing MTS dye (Invitrogen Inc) and incubated for period (varying from 10 min to 1 day). The absorbance of the media was read at varying wavelengths, advantageously at […] in an ELISA reader.
(§1) Viability of cell lines (ECC-1, AN3CA, RL-95-2, SKOV-3, PC-3, MCF-7, SMSKCNR and TCL-1) before and after MeTC7 treatment was determined by the CellTiter 96® AQueous One Solution Assay (Promega Corp, Madison, Wisc.) following the manufacturer's recommendations. This colorimetric assay is based on the ability of mitochondria to reduce a substrate [MTS, 3-(4,5-dimethylthiazol-2-yl)-5-(3-carboxymethoxy phenyl)-2-(4-sulfophenyl)-2H-tetrazolium] into a soluble formazan product quantified by measuring the absorbance at 490 nm. The resulting OD is directly proportional to the number of living cells. […] The samples were incubated for an additional 4 h before absorbance was measured at 490 nm in an ELISA plate reader (Thermo Labsystems, Waltham, Mass.). […]

SKOV-3 cells [1] = experiment: MTS cell viability assay, SKOV-3; format: cell-based; settings: FIG. 1 / FIG. 2
Experimental: SKOV-3 cells were seeded (5,000 cells/well) in complete DMEM (supplemented with 10% fetal bovine serum and 1% antibiotic) and allowed to adhere overnight. Media was replaced with a fresh complete DMEM media containing varying concentrations of the drugs of interest. DMSO was used as control. At a suitable interval (varying from 1 minute to 4 days), the media was replaced again with complete RPMI (supplemented with 10% fetal bovine serum and 1% antibiotic) containing MTS dye (Invitrogen Inc.) and incubated for a period varying from 10 minutes to 1 day. The absorbance of the media was read at varying wavelengths, advantageously at […] in an ELISA reader.
as §1, with “nm.” for “nm. The resulting OD is directly proportional to the number of living cells.”

SKOV-3 cells [2] = experiment: inhibition of lipid synthesis in SKOV-3 cells (HPLC of extracted lipids); format: cell-based; settings: 500 nM, serum free
Experimental: Approximately 3 million cells in serum free conditions were treated with Compound (3) (500 nM). Media was removed, and cells were washed with PBST, trypisinized and collected after centrifugation at 1,000 rpm. The cell pellet was washed with PBST and treated with methanolic HCl for 1 hour. The methanol was removed, and cells were suspended in water and extracted with chloroform. The collected chloroform layer was evaporated with a gentle nitrogen stream, and the residue was analyzed by HPLC.

SKOV-3 tumor xenographs = experiment: SKOV-3 tumor xenograft in nude mice; format: in vivo
Experimental: The effects of exemplary compounds of the invention on the growth of SKOV-3 tumor xenographs in nude mice were investigated. Substantively, four- to six week-old immunodeficient nude mice (NU/NU; strain code 088/homozygous) (Charles River Laboratories, Wilmington, Mass.) were maintained at a temperature of 22±1° C. and a relative humidity of 55±5%, with a 12 h light/dark cycle. SKOV-3 cells were cultured to 80% confluence, washed in PBS twice, harvested by hypsination, pooled in complete medium, washed in PBS twice, and 2×10^6 cells/inoculate were suspended in 0.1 ml of matrigel and inoculated subcutaneously in the flank of mice. Mice with developing tumors after two weeks were randomly assigned to experimental groups. Compound (3) was prepared as a stock solution of 1 mM in 100% EtOH and diluted 1:40 in PBS for administration. […] Mice were weighed and tumor size caculated using a caliper every 5 days.
Four to six week-old immunodeficient nude mice (NU/NU; strain code 088/homozygous) (Charles River Laboratories, Wilmington, Mass.) were maintained at a temperature of −22° C. and a relative humidity of ˜55%, with a 12 h light/dark cycle. […]

[3] = tested on: panel of cancer cell lines; experiment: ascorbic acid pretreatment, MTS viability in a panel of cancer cell lines; format: cell-based; settings: ascorbic acid pretreatment 3 hours
Experimental: Cell lines derived from ovarian cancer, endometrial cancer, breast cancer, prostate cancer and neuroblastoma (5,000 cells/well) were seeded in complete DMEM (supplemented with 10% fetal bovine serum and 1% antibiotic) and allowed to adhere over night. Cells were pretreated with […] of acrorbic acid in 50 μL DMEM media for 3 hours. To the existing media was added DMEM media containing varying concentrations of 2× concentration of Compound (3). DMSO was used as control. At suitable intervals (varying from 1 minute to 4 days), the media was replaced again with complete RPMI (supplemented with 10% fetal bovine serum and 1% antibiotic) containing MTS dye (Invitrogen Inc) and incubated for period (varying from 10 min to 1 day). The absorbance of the media was read at varying wavelengths, advantageously at 492 nm, in an ELISA reader.

HUVEC cells = experiment: wound healing (scratch) assay with HUVEC cells; format: cell-based; settings: 500 nMoles, 24 hours
Experimental: A 24-well plate was coated with 100 µL of sterile 1% gelatin solution per well. After gelatin coating was hardened, about 100,000 HUVEC cells were seeded per well and allowed to grow to 100% confluence in EBM-2 media. A […] tip was then used to create a vertical scratch wound down the center of each well, and cells were washed once with fresh EBM-2 media. Cell monolayers were then imaged at a 0 h time point using light microscopy on an inverted microscope under sterile conditions. Wound areas were imaged again using light microscopy, and areas were demarcated on representative images.
Floating cells were removed and media was replaced with HUVEC cell media supplemented with vehicle or Compound (3) (500 nMoles) and incubated for 24 hours. The cells were imaged using a pre-cooled inverted NICON microscope (40×).

[4] = tested on: rat aorta rings (microcapillary formation); experiment: ex vivo rat aorta ring assay; settings: 24 hour treatment, FIG. 9
Experimental: Rat aorta were harvested from the freshly euthanized naïve rats, cleaned and cut into fine rings and placed on matrigel beds prepared 30 min earlier in a 6 well plate. […] The media was replaced with fresh supplemented media and allowed the incubation for next 48 hours, thus affording a strong network of the microcappilary network. […] The phase contrast images were recorded on a pre-cooled inverted NICON microscope.

[5] = tested on: SKOV-3 and OVCAR-8 ovarian cancer cells; experiment: apoptosis detection (TUNEL, cytochrome-C release) in ovarian cancer cells; format: cell-based
Experimental: SKOV -3 and OVCAR-8 ovarian cancer cells (10,000 per well) were seeded in a 8 well slide chamber in DMEM complete media and allowed to incubate overnight. Cells were treated with complete media containing either vehicle or MeTC7 (500 nM) and incubated for 12 hours in a humidified incubator maintained at standard conditions. DNA fragmentation was detected using the DeadEndTM Fluorometric TUNEL System assay (Promega, Madison, Wisc.) according to the manufacturer's recommendations. Fluorescence of apoptotic cells (green; labeling of DNA nicks by fluorescein-12-dUTP) and of chromatin (red; staining of chromatin with propidium iodide) was detected by fluorescence microscopy with an inverted microscope (Nikon Eclipse TE2000-E) and a 10× objective. Four randomly chosen microscopic fields were captured. For the detection of the cytochrome-C release as a marker of the apoptosis, the cells were fixed in 5% cold formalin solution and cells were stained with cytochrome-C primary antibody (Santa Cruz Biotechnology, USA) and corresponding fluroescence linked secondary antibody. The images were recorded using an inverted microscope. At least five field were arbitrarily scoped.

[6] = tested on: various cancer cell lines; experiment: viability of a panel of cancer cell lines (CellTiter 96 MTS); format: cell-based; settings: FIGS. 11A-11C
Experimental: Viability of cell lines (ECC-1, AN3CA, RL-95-2, SKOV-3, PC-3, MCF-7, SMSKCNR and TCL-1) before and after MeTC7 treatment was determined by the CellTiter 96® AQueous One Solution Assay (Promega Corp, Madison, Wisc.) following the manufacturer's recommendations. This colorimetric assay is based on the ability of mitochondria to reduce a substrate [MTS, 3-(4,5-dimethylthiazol-2-yl)-5-(3-carboxymethoxy phenyl)-2-(4-sulfophenyl)-2H-tetrazolium] into a soluble formazan product quantified by measuring the absorbance at 490 nm. The resulting OD is directly proportional to the number of living cells. Briefly, cells (5×10^3/well) were plated into 96 well flat bottom plates (Corning, Inc., Coming, N.Y.) before treatment with various drugs or vehicle (DMSO) as indicated. Following incubation at 37° C. in a cell culture incubator for 20 h MTS reagent was added at a 1:10 dilution to the medium. The samples were incubated for an additional 4 h before absorbance was measured at 490 nm in an ELISA plate reader (Thermo Labsystems, Waltham, Mass.). Experiments were performed in triplicates; data are expressed as the mean of the triplicate determinations (X±SD) of a representative experiment in % of absorbance by samples with untreated cells [=100%]. Similarly, the cell viability of HEPG2 and HEK293 cells was determined except that the drug concentrations were used in the logarithmic values.

DAOY cells xenograft = experiment: medulloblastoma (DAOY) xenograft in nude mice; format: in vivo; settings: 10 mg/kg bwt i.p., 5× week, 15 days
Experimental: Animal experiments were carried out in the animal facilities of Rhode Island Hospital (RIH), Rhode Island, USA with strict adherence to the guidelines of the Animal Welfare Committee of Rhode Island Hospital (RIH) and Women and Infants Hospital of Rhode Island (Laboratory Animal Protection Approval: A3922-01). Four to six week-old immunodeficient nude mice (NU/NU; strain code 088/homozygous) (Charles River Laboratories, Wilmington, Mass.) were maintained at a temperature of ˜22° C. and a relative humidity of ˜55%, with a 12 h light/dark cycle. DAOY cells were cultured to 80% confluence, washed in PBS twice, harvested by trypsination, pooled in complete medium, washed in PBS twice, and 1×10^6 cells/inoculate were suspended in 0.1 ml of matrigel and inoculated subcutaneously in the flank of mice. Mice with developing tumors after two weeks were randomly assigned to experimental groups. Mice were treated intraperitoneally every day with either vehicle control (control group; 6 animals) or MeTC7 (n=5, 10 mg/kg bwt, 5× week) for 15 days. Mice were weighed and tumor size were measured using a digital caliper every 5th days.

A2058 cells xenograft = experiment: melanoma (A2058) xenograft in nude mice; format: in vivo; settings: 10 mg/kg bwt i.p., 5× week, 15 days
Experimental: Animal experiments were carried out in the animal facilities of Rhode Island Hospital (RIH), Rhode Island, USA with strict adherence to the guidelines of the Animal Welfare Committee of Rhode Island Hospital (RIH) and Women and Infants Hospital of Rhode Island (Laboratory Animal Protection Approval: A3922-01). Four to six week-old immunodeficient nude mice (NU/ NU; strain code 088/homozygous) (Charles River Laboratories, Wilmington, Mass.) were maintained at a temperature of ˜22° C. and a relative humidity of ˜55%, with a 12 h light/dark cycle. A2058 cells were cultured to 80% confluence, washed in PBS twice, harvested by trypsination, pooled in complete medium, washed in PBS twice, and 1×10^6 cells/inoculate were suspended in 0.1 ml of matrigel and inoculated subcutaneously in the flank of mice. Mice with developing tumors after two weeks were randomly assigned to experimental groups. Mice were treated intraperitoneally every day with either vehicle control (control group; 7 animals) or MeTC7 (10 mg/kg bwt, 5× week) for 15 days. Mice were weighed and tumor size were measured using a digital caliper every 5th days. The percent of animals with tumor size less than 15 mm was calculated by Kaplan-Meier Analysis.

VDR-LBD = molecular target: T1, VDR-LBD (Homo sapiens, UniProt P11473)
T1 sequence (P11473 127-423 limits assumed): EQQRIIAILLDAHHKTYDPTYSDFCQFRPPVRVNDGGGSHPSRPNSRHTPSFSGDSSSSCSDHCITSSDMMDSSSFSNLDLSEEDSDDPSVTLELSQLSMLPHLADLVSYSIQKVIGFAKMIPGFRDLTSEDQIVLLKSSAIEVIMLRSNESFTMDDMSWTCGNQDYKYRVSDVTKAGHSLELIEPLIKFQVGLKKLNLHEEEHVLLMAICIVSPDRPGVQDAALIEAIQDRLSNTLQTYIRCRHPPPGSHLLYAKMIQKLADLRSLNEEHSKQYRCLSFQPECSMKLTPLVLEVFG
Excerpt: VDR antagonists disrupt this interaction by a direct or allosteric mode of inhibition.

## CC(C)CCC[C@@H](C)[C@H]1CC[C@H]2C34C=CC5(C[C@@H](OC(=O)CBr)CC[C@]5(C)[C@H]3CC[C@]12C)n1c(=O)n(C)c(=O)n14 (stereo partly shown) [Compound (3)]
ECC-1 cells
  cell viability of ECC-1 cells: reduction in cell viability
SKOV-3 cells [1]
  cell viability of SKOV-3 cells: reduction in cell viability
SKOV-3 cells [2]
  lipids appearing at 10.06 minutes (HPLC): significantly reduced
SKOV-3 tumor xenographs; 10 mg/kg bwt i.p. every other day, 40 days, FIG. 7
  tumor burden: reduces the tumor burden
SKOV-3 tumor xenographs; 10 mg/kg bwt i.p., 5× week, 31 days, FIG. 11F
  growth of ovarian cancer xenografts: reduce the growth of ovarian cancer xenografts in animals
[3]
  cytotoxic effects after ascorbic acid pretreatment: reduced the cytotoxic effects
HUVEC cells
  recovery of the scratched area: failed to recover and repopulate the scratched area
[4]
  capillary formation and outgrowth: inhibited capillary formation and outgrowth
[5]; 500 nM, 12 hours
  cytochrome-C release: abundant cytochrome-C release in the cytosol
[5]; FIGS. 11D-11E
  apoptosis: cause apoptosis
[6]
  growth of cancer cell lines: block growth of various cancer cell lines
DAOY cells xenograft
  growth of medulloblastoma xenografts: reduce the growth of medulloblastoma xenografts in animals
A2058 cells xenograft
  growth of BRAF mutant melanoma xenografts: reduce the growth of BRAF mutant melanoma xenografts in animals
A2058 cells xenograft; Kaplan-Meier
  survival of animals with melanoma xenografts: extend survival in these animals
VDR-LBD; FIGS. 10A-10F
  VDR antagonism, selectivity: selective Vitamin D nuclear receptor (VDR) antagonists
VDR-LBD; in the absence of calcitriol
  VDR agonism (coactivator recruitment): not a VDR agonist
